Laboratory results published in patent publication US7417072B2, “Blockade of Pin1 prevents cytokine production by activated immune cells” (Wisconsin Alumni Research Foundation, priority 2005, dated 2008).
Residues, ends and D or L forms follow the SMILES beside them. *: point of attachment. Cbz = O=C(OCc1ccccc1)*

What was measured:
eosinophils (Eos) = assay: Eosinophil survival, cell viability at day 4; assay type: cell-based, human; details: for Eos survival: HA-activated Eos
Method: In FIG. 2C, cells were untreated (−/− lanes on left) or incubated for 4 h with HA atone, HA plus varying concentrations (160 or 320 nM) of TAT-conjugated green fluorescent protein (TAT-GFP) or TAT-conjugated Pin1 domains (TAT-wwPin1) and analyzed as in FIG. 2A. In FIG. 2D, control (−/−), HA (100 μg/ml), rhGM-CSF (100 pg/ml), HA or GM-CSF plus TAT-GFP (160 nM) or HA or GM-CSF plus TAT-wwPin1 (160 nM) treated Eos were cultured for 4 days prior to cell viability assay as disclosed in Example 2 below.
To this end, peripheral blood was obtained by venipuncture from patients who had allergic rhinitis or asthma; patients were not symptomatic at the time blood was obtained. Peripheral blood eosinophils (Eos) were purified using a negative immunomagnetic procedure as described in Esnault and Malter (2001, J. Immunol. 166:4658-96). After isolation, Eos were maintained in vitro in RPMI 1640 medium (Gibco Life Technologies, Grand Island, N.Y.) with 10% fetal calf serum (Gibco Life Technologies, Grand Island, N.Y.) and 50 μg/ml gentamicin (Gibco Life Technologies, Grand Island, N.Y.) at 37° C. in 5% CO2, and were metabolically labeled and activated by treatment under these culture conditions with 100 μg/ml HA (˜5 hours total, see below).
The mechanism of Eos death was evaluated by western blotting.

GM-CSF mRNA = GM-CSF mRNA levels in eosinophils, RT-PCR/Southern blot; assay type: cell-based, human
Method: In FIG. 2A, Eos were treated as in FIG. 1A for 4 h prior to lysis with TriReagent and RT-PCR/Southern blot analysis for GM-CSF mRNA. Gel electrophoresis of GM-CSF products and control β-actin RT-PCR products are shown. In FIG. 2B, cells were treated with HA for 4 h and then juglone (1 μM) was added at the indicated times before harvest and RT-PCR analysis, where GM-CSF or β-actin mRNA expression were analyzed as above. In FIG. 2B, “C,” refers to PCR reaction mixtures without added cDNA. In FIG. 2C, cells were untreated (−/− lanes on left) or incubated for 4 h with HA atone, HA plus varying concentrations (160 or 320 nM) of TAT-conjugated green fluorescent protein (TAT-GFP) or TAT-conjugated Pin1 domains (TAT-wwPin1) and analyzed as in FIG. 2A. […] In FIG. 2E, eosinophils were treated for 4 h with HA or HA plus juglone (1 μM, 1 h prior to harvest) prior to the addition of actinomycin D (5 μg/ml) and cells harvested at the indicated times for RT-PCR/Southern blot analysis. In these experiments, PCR was performed for 30 (HA-treated cells) or 33 (HA plus juglone-treated cells) cycles, respectively.
In FIG. 3A, Eos were untreated (−/−), treated with HA or HA plus juglone (1 μM) for 4 h. […] In FIG. 3C, cells were untreated (−/−/−) treated for 4 h with HA alone, HA plus juglone (10 min before harvest) or HA plus 20 μM or 100 μM MG132 (4 h) plus juglone (10 min before harvest), Cell lysates were immunoblotted with the antibodies shown. […] In FIG. 3D, Eos were treated as described for FIG. 3C except that only 20 μM MG132 was used. Cells were lysed with TriReagent for total RNA isolation prior to RT-PCR/Southern blot analysis.
To characterize the mechanisms connecting hyaluronic acid (HA) activation to GM-CSF expression and eosinophil survival, GM-CSF mRNA decay was measured.
In order to assess this possibility, GM-CSF mRNA levels were measured by RT/PCR-Southern blot hybridization experiments.

Pin1 and AUF1 = Pin1 and AUF1 protein levels in eosinophils, immunoprecipitation/immunoblot; assay type: cell-based, human; details: MG132 4 h, juglone 10 min before harvest
Method: In FIG. 3A, Eos were untreated (−/−), treated with HA or HA plus juglone (1 μM) for 4 h. Cell lysates were immunoprecipitated with anti-Pin1 antibody followed by immunoblotting with anti-AUF1 or anti-Pin1 antibodies. Nonimmune IgG was used as a negative control while HeLa cell extracts were used as a positive control (“C”). In FIG. 3B, immunoblots of cytoplasmic protein from Eos treated for 4 h with HA or co-treated with juglone (1 μM) for the indicated times before harvest. In FIG. 3C, cells were untreated (−/−/−) treated for 4 h with HA alone, HA plus juglone (10 min before harvest) or HA plus 20 μM or 100 μM MG132 (4 h) plus juglone (10 min before harvest), Cell lysates were immunoblotted with the antibodies shown. Lane “C” is a HeLa cell lysate used as a positive control. In FIG. 3D, Eos were treated as described for FIG. 3C except that only 20 μM MG132 was used.
The effects of HA and juglone treatment on the interactions between AUF1 and Pin1 were then examined.
To address this possibility, Eos were exposed to the proteasome inhibitor MG132 (4 h) (Sigma) and juglone (10 min before harvest) and lysates immunoblotted.

p45 and p40 AUF1 = assay: Anti-phosphoserine immunoblot of eosinophil cytoplasmic extracts; assay type: cell-based, human; details: 50 μM added 30 min before harvest
Method: Cells were untreated (−/−/−), treated with HA alone (4 h), HA (4 h) plus juglone (1 μM added 10 min before harvest) or HA plus Erk inhibitor PD98059 (PD) (50 μM added 30 min before harvest). Cytoplasmic extracts were immunoblotted with anti-phosphoserine, anti-AUF1 or anti-Pin1 antibody as shown.
As the association of Pin1 and AUF1 was unaffected by HA (FIG. 2A) despite the loss of GM-CSF mRNA from the protein complex (FIGS. 4A & 4B) it was hypothesized that either AUF1 and/or Pin1 was modified by HA mediated signaling. Phorbol esters trigger the dephosphorylation of Ser^83 and Ser^87 of p40 AUF1 was concomitant with the stabilization of IL-1β and TNF-α mRNAs (Wilson et al. 2003, J. Biol. Chem. 278:33029-33038). Therefore, cytoplasmic extracts from control or HA-treated Eos were immunoblotted with anti-phosphoserine, anti-AUF1 or anti-Pin1 antibodies.

[1] = system: peripheral blood mononuclear cells (PBMC); assay: Cytokine mRNA accumulation in activated PBMC, northern blot / qPCR; assay type: cell-based, human; details: mitogen stimulated, 4 h, juglone 1 μM
Method: PBMCs were isolated from healthy donors by Percoll® gradient centrifugation of heparinized whole blood. Cells were cultured in RPMI 1640 media supplemented with 10% fetal calf serum (FCS) at 1×10^6 cells/ml prior to the addition of PMA (20 ng/ml) and PHA (5 ug/ml) (P/P) or PMA, PHA and juglone (1 uM) (P/P/J); “R” designates the control lane without addition of additional substances. After 4 h, cells were lysed and 10 ug of recovered RNA northern blotted and hybridized with probes shown along the left side of the Figure. “A” and “B” refer to results with 2 different donors.
After 4 h, RNA was isolated from the cells and used for quantitative PCR (qPCR) for the cytokine mRNAs shown. Data are presented as % inhibition in samples with juglone.
Thus peripheral blood mononuclear cells (˜70% T cells, 20% B cells, 5-10% macrophages/monocytes, obtained by phlebotomy of normal donors) were incubated with optimal concentrations of mitogens (phorbol ester (20 ng/ml), and PHA (40 ug/ml), both from Sigma) and cytokine in RNA levels were measured by northern blot or real time RT/PCR (qPCR) and cytokine secretion by ELISA. […] IL-2, IL-8, TNFα, IFNγ and GM-CSF mRNAs were evaluated first, since these cytokines all share 3′ UTR AU-rich elements with GM-CSF.

rat splenocytes [2] = assay: Splenocyte viability, propidium iodide flow cytometry; assay type: cell-based; details: 24 hours
Method: In FIG. 14A, mRNAs for IFN-γ, IL-2, TNF-α, CXCL-10 and TGF-β were analyzed in rat splenocytes by reverse transcription, qPCR. The ionomycin/PMA stimulated sample was normalized to 100 and others expressed as a % of that value. […] Cells were stained with propidium iodide and analyzed by flow cytometry. The results shown are representative of 3 experiments. […] The data are averages±SEM of 3 independent experiments using splenocytes of untreated healthy animals.
Therefore, Pin1 blockade suppressed proliferation as well as the elaboration of proinflammatory cytokines by activated rat splenocytes.

purified T cells = assay: Cytokine mRNA in purified T cells activated with anti-CD3/anti-CD28, qPCR; assay type: cell-based, human; details: anti-CD3/anti-CD28, juglone 1 μM added along with antibody, 4 hours
Method: Purified T cells were prepared by negative selection of PBMC (T cells>98% pure based on flow cytometry) and activated with a combination of anti-CD3 and anti-CD28 antibodies. Juglone was added at 0.1 or 1 μM as shown along with the antibodies or at various times (as shown) at 1 μM after the antibodies.
Purified T cells were prepared by negative selection of PBMC (T cells>98% pure based on flow cytometry) and activated with a combination of anti-CD3 and anti-CD28 antibodies. Juglone was added at 0.1 or 1 μM as shown along with the antibodies. After 4 hours total incubation time, cells were lysed and mRNA used for RT-qPCR for the cytokine mRNAs shown “−” refers to control cells activated but not exposed to juglone.
As PBMC are heterogeneous, this cell population was fractionated into T cells by negative selection (as described in Sedgwick et al., 2003, Am J Respir Cell Mol Biol. 29:702-9). […] These were then activated with anti-CD3 and anti-CD28 antibodies (obtained from Santa Cruz Biotech), and the effects of Pin1 blockade on cytokine gene expression assessed by qPCR. […] Juglone (1 μM) added along with antibody reduced GM-CSF mRNA by between 80-95%.

rat splenocytes [3] = assay: IFN-γ and IL-2 secretion by activated splenocytes, ELISA; assay type: cell-based; details: I/P stimulated spleen cells
[4] = system: cytokine expression and immune cells of transplant recipients; assay: Immunologic analysis of lung transplant recipients (blood, spleen, BAL, lung, mediastinal lymph nodes)
Method: Splenocytes (2000) from control or juglone-treated transplant recipients were activated with ionomycin (1 μM) and PMA (20 ng/ml) for 3 days prior to addition of anti-IL-2 or IFN gamma antibodies and color development and counting.
Spleens were processed 8 days after transplantation from untreated or juglone-treated rats for mRNA isolation and RT-qPCR for IL-2, IFN or TNF alpha. Juglone treated mRNA levels were set to 100% in these analyses.
Data are shown as the average±SEM (n=4 rats) of 3 experiments 7 days after transplantation.
The values in untreated controls were normalized to 100% and data shown represent % change in juglone treated samples. The data shown are an average±SEM (n=4 rats) of 4 experiments. * denotes p<0.05 from control samples. […] Values are normalized to control (100%).
Cytokine elaboration was measured by control, activated or juglone treated activated splenocytes as follows. IFNγ secretion by splenocytes was evaluated by ELISPOT (R&D Systems, Minneapolis, Minn.) as described by the manufacturer. Triplicates of serial dilutions of cells were cultured with PMA (10 ng/ml) plus iononycin (1 μM) for 48 hours. The concentration of IFN-γ and IL-2 in the BAL fluid was determined using an ELISA kit (R&D Systems).
Next, immunologic changes between control and juglone treated transplant recipients were analyzed. […] Splenocytes harvested from control versus untreated animals (8 days after transplant) were stimulated with optimal concentrations of PMA (20 ng/ml) and ionomycin (1 μM) and analyzed by Elispot for IL-2 and IFNγ expression.
Levels of IFN-γ and IL-2 were as measured, as described above, in the animals one week after transplantation.
Cytokine mRNAs from splenocytes in juglone treated animals were also examined.

C=CC[C@@H]1/C=C(\C)C[C@H](C)C[C@H](OC)[C@H]2O[C@@](O)(C(=O)C(=O)N3CCCC[C@H]3C(=O)O[C@H](/C(C)=C/[C@@H]3CC[C@@H](O)[C@H](OC)C3)[C@H](C)[C@@H](O)CC1=O)[C@H](C)C[C@@H]2OC [FK506]
Effect on HA-enhanced Eos survival (eosinophils (Eos); HA 100 μg/ml, TAT proteins 160 nM): no effect

CC(C)C[C@@H](C=O)NC(=O)[C@H](CC(C)C)NC(=O)[C@H](CC(C)C)NC(=O)OCc1ccccc1 [MG132] (Cbz-Leu-Leu-Leu-aldehyde)
GM-CSF mRNA in Eos treated with MG132 alone (GM-CSF mRNA): no observable effect | GM-CSF mRNA in Eos treated with HA, MG132 and juglone (GM-CSF mRNA; 20 μM MG132 4 h, juglone 10 min before harvest): antagonized juglone-induced decreases of GM-CSF mRNA | Juglone-induced Pin1 degradation (Pin1 and AUF1): only partially prevented Pin1 degradation | Juglone-induced p45, p42 and p40 AUF1 degradation (Pin1 and AUF1): completely blocked

COc1cccc(-c2cc(=O)c3ccccc3o2)c1N [PD98059]
GM-CSF mRNA levels in HA-treated Eos (GM-CSF mRNA; HA 4 h, CsA 1.6 μM or 16 μM, TAT proteins 160 or 320 nM): failed to accumulate | Time to effect on GM-CSF mRNA after addition of the inhibitor (GM-CSF mRNA; HA-activated Eos): 10 to 30 min | HA-increased phosphorylation of p45 and p40 AUF1 (p45 and p40 AUF1): partially antagonized

O=C1C=CC(=O)c2c(O)cccc21 [juglone]
Suppression of cytokine mRNAs by qPCR [1]: 65-90% | Eos survival (eosinophils (Eos); 0.1 μM): 5% | Eos survival (eosinophils (Eos); 1.0 μM): 5% | Apoptosis in I/P versus I/P/juglone treated splenocytes (rat splenocytes [2]): equivalent levels of apoptosis | Reduction of GM-CSF mRNA in purified T cells (purified T cells): 80-95% | Concentration of maximal effect on cytokine secretion (rat splenocytes [3]): 1 µM | Reduction in number of splenocytes expressing IL-2 and IFNγ by Elispot ([4]; 8 days after transplant, PMA 20 ng/ml and ionomycin 1 μM): 60-70% | Absolute counts and ratios of peripheral blood CD4+, CD8+ cells and γ/δ lymphocytes ([4]; after 1 week of juglone): largely unaffected | Fewer total BAL cells than untreated controls ([4]; juglone 1 mg/kg): 50% | IL-2 and IFN-gamma mRNA in lungs compared with no treatment controls ([4]; juglone 1 mg/kg): about 35%
